Test results published in patent US20090209469A1, “Use of Exendins and GLP-1 Receptor Agonists for Altering Lipoprotein Particle Size and Subclass Composition” (priority 2006, published 2009).

Assays:
[1] = test system: Patients with type 2 diabetes inadequately controlled by sulphonylurea and metformin; experiment: Fibrinogen concentration by the von Clauss clotting method; format: in vivo, human; details: type 2 diabetes patients
Experimental: For test meal data, postprandial glucose incremental AUC0-4h is calculated at baseline and week 52.
Fibrinogen activity is measured by the von Clauss clotting method. By the von Clauss clotting method, thrombin is added to a test sample and the time until clotting is measured. Fibrinogen concentration is determined by comparing clotting time for the test sample to the clotting time of a standard curve for various reference plasmas.
Fibrinogen is measured at baseline, Week 16, Week 52, or at early termination of the study.

[2] = test system: Patients with type 2 diabetes inadequately controlled by sulphonylurea and metformin; experiment: Lipoprotein subclass particle concentrations and average particle diameters by proton NMR spectroscopy, 1-year open-label trial (test meal study); format: in vivo, human; details: change from baseline to endpoint (week 52), type 2 diabetes patients
Experimental: In the context of the present invention, lipoprotein concentrations are measured according to standard nuclear magnetic resonance techniques, where the measured amplitudes of characteristic lipid methyl group signals provide particle concentrations.
In the context of the present invention, lipoprotein subclass particle concentrations and average particle diameters are measured using proton nuclear magnetic resonance spectroscopy using the algorithm of LipoScience, Inc. See e.g., Festa et al., Nuclear Magnetic Resonance Lipoprotein Abnormalities in Prediabetic Subjects in the Insulin Resistance Artherosclerosis Study, Circulation, 111:3465-3472 (2005). […]
Lipoprotein subclass particle concentrations and average particle diameters are measured using proton nuclear magnetic resonance spectroscopy. See e.g., Festa et at., Nuclear Magnetic Resonance Lipoprotein Abnormalities in Prediabetic Subjects in the Insulin Resistance Artherosclerosis Study, Circulation, 111:3465-3472 (2005).
The particle concentrations of different lipoprotein subclasses are obtained by measuring the amplitudes of the characteristic lipid methyl NMR signals. The signal amplitudes of various subclasses are extracted from the overall lipid methyl group signal with a spectral deconvolution algorithm (Lipo Science, Inc.). See e.g., Festa. VLDL and LDL particle concentrations are given in nanomoles per liter. HDL particle concentrations are provided in micromoles per liter.
Average particle sizes (in nanometers diameter) are computed as the sum of the diameter of the particle subclass multiplied by the relative mass percentage of the subclass as estimated from the amplitude of its methyl NMR signal.
Particle concentrations and sizes are compared before and after administration of an exendin or exendin agonist. See e.g., Table 1.

Which “Fibrinogen level, mean, Baseline” value ([1]; baseline, before treatment) does the source give for biphasic insulin aspart 30/70 here?
The value was 4.22 g/L.

What about the “Fibrinogen level, mean, Endpoint (LOCF)” value ([1]; endpoint, last post-baseline measurement carried forward (Week 16, Week 52 or early termination)) of the same substance?
The value was 4.16 g/L.

And the “HDL Particle Size, Δ mean” value [2]?
The value was “+0.04 nm”.

And the “VLDL Particle Size, Δ mean” value [2]?
The value was −1.6 nm.

What about the “LDL Particle Size, Δ mean” value ([2]; exenatide 5 μg BID 4 weeks then 10 μg BID 48 weeks vs biphasic insulin aspart 30/70) of the same substance?
Its value is “+0.11 nm”.

What about the “Large HDL, Δ mean” value ([2]; particle concentration) of the same substance?
The value was “+1.0 μmol/L”.

What about the “Large LDL, Δ mean” value ([2]; particle concentration) of the same substance?
Its value is “+37.7 nmol/L”.

What about the “Small LDL, Δ mean” value ([2]; particle concentration) of the same substance?
The value was -25.8 nmol/L.

And the “Small VLDL, Δ mean” value ([2]; particle concentration)?
Its value is “+8.5 nmol/L”.

And the “Total HDL, Δ mean” value ([2]; particle concentration)?
The value was “+2.5 μmol/L”.

What about the “Total LDL, Δ mean” value ([2]; particle concentration) of the same substance?
Its value is “+5.0 nmol/L”.

And the “Total VLDL, Δ mean” value ([2]; particle concentration)?
Its value is “+12.9 nmol/L”.

What about the “Very Small LDL, Δ mean” value ([2]; particle concentration) of the same substance?
The value was -17.0 nmol/L.
